Test results: US9840522B2, “Multi-modal bioprobe for bladder cancer imaging and photodynamic therapy” (Hong Kong Baptist University, priority 2014, dated 2017)

System: xenograft tumor (T24 bladder cancer cells)
Test: In vivo magnetic resonance imaging after tail vein injection
Design: species or system mice
Conditions: MRI immediately
Protocol: After tail vein injection of Gd-3-R1 and Gd-DOTA into the mice, MRI experiment is conducted immediately.

O=C([O-])CN1CCN(CC(=O)[O-])CCN(CC(=O)O)CCN(CC(=O)[O-])CC1.[Gd+3] [Gd-DOTA]
MRI contrast effect on xenograft tumor: enhances the whole body signal without selectivity toward the tumor
